Laboratory results reported in ChEMBL document CHEMBL1201862, “PubChem BioAssay data set” (2004).
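Five concentrations, 48 hours, 96-well plates. The concentration for 50% growth inhibition is given as GI50.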 The source made the active and inactive calls. No stated cut-off is given here; in the data, active = GI50 up to about 1.1 µM and inactive = higher.

Assays:
Test in all cases: DTP human tumour cell line panel, 48 h
[1] = test system: NCI-H460
[2] = test system: EKVX
[3] = test system: HL-60
[4] = test system: SF-268
[5] = test system: CCRF-CEM
[6] = test system: UACC-257
[7] = test system: ACHN
[8] = test system: RXF 393
[9] = test system: SR
[10] = test system: SNB-75
[11] = test system: K562
[12] = test system: A549
[13] = test system: HOP-18
[14] = test system: SK-MEL-5
[15] = test system: SNB-78
[16] = test system: SN12C
[17] = test system: HOP-62
[18] = test system: SK-MEL-2
[19] = test system: OVCAR-5
[20] = test system: KM-20L2
[21] = test system: NCI-H226
[22] = test system: COLO 205
[23] = test system: XF498
[24] = test system: 786-0
[25] = test system: NCI-H522
[26] = test system: SK-MEL-28
[27] = test system: M19-MEL
[28] = test system: UO-31
[29] = test system: SK-OV-3
[30] = test system: MOLT-4
[31] = test system: HCT-15
[32] = test system: UACC-62
[33] = test system: CAKI-1
[34] = test system: HT-29
[35] = test system: OVCAR-8
[36] = test system: KM12
[37] = test system: HCC 2998
[38] = test system: DLD-1
[39] = test system: A498
[40] = test system: OVCAR-4
[41] = test system: LXFL 529
[42] = test system: TK-10
[43] = test system: DMS-273
[44] = test system: HCT-116
[45] = test system: SF-295
[46] = test system: Malme-3M
[47] = test system: M14
[48] = test system: RPMI-8226
[49] = test system: U-251
[50] = test system: SF-539
[51] = test system: NCI-H23
[52] = test system: SNB-19
[53] = test system: IGROV-1
[54] = test system: HOP-92
[55] = test system: DMS-114
[56] = test system: SW-620
[57] = test system: LOX IMVI
[58] = test system: OVCAR-3

In the case of `CCC1CCc2c(c(=O)oc3c2cc(OC)c2cccc(OC)c23)C1` (configuration not stated), the GI50 [1] is reported as 51.1 µM (inactive), the GI50 [2] is reported as > 100 µM (inactive) and the GI50 [3] is reported as 17.5 µM (inactive). For the same molecule, the GI50 [4] was 90.2 µM (inactive), the GI50 [5] was 28.3 µM (inactive) and the GI50 [6] was 67.1 µM (inactive). The GI50 [7] was 87.7 µM (inactive), the GI50 [8] was 21.7 µM (inactive) and the GI50 [9] was 38.1 µM (inactive). The GI50 [10] was 55.8 µM (inactive), the GI50 [11] was 40.9 µM (inactive) and the GI50 [12] was 71 µM (inactive). For the same molecule, the GI50 [13] was > 100 µM (inactive), the GI50 [14] was 34.8 µM (inactive) and the GI50 [15] was > 100 µM (inactive). For the same molecule, the GI50 [16] was > 100 µM (inactive), the GI50 [17] was 60.5 µM (inactive) and the GI50 [18] was > 100 µM (inactive). For the same molecule, the GI50 [19] was > 100 µM (inactive), the GI50 [20] was > 100 µM (inactive) and the GI50 [21] was > 100 µM (inactive). The GI50 [22] was > 100 µM (inactive), the GI50 [23] was 29.5 µM (inactive) and the GI50 [24] was > 100 µM (inactive). The GI50 [25] was 36.6 µM (inactive), the GI50 [26] was > 100 µM (inactive) and the GI50 [27] was 55.8 µM (inactive). The GI50 [28] was > 100 µM (inactive), the GI50 [29] was > 100 µM (inactive) and the GI50 [30] was 23.2 µM (inactive). For the same molecule, the GI50 [31] was over 100 µM, the GI50 [32] was 48.5 µM (inactive) and the GI50 [33] was > 100 µM (inactive). The GI50 [34] was 33.4 µM (inactive), the GI50 [35] was 50.1 µM (inactive) and the GI50 [36] was 47.8 µM (inactive). For the same molecule, the GI50 [37] was 77.1 µM (inactive), the GI50 [38] was 48.3 µM (inactive) and the GI50 [39] was > 100 µM (inactive). The GI50 [40] was 76 µM (inactive), the GI50 [41] was 44 µM (inactive) and the GI50 [42] was > 100 µM (inactive). For the same molecule, the GI50 [43] was 42.6 µM (inactive), the GI50 [44] was 33.4 µM (inactive) and the GI50 [45] was 32.6 µM (inactive). The GI50 [46] was 56.9 µM (inactive), the GI50 [47] was > 100 µM (inactive) and the GI50 [48] was 49.5 µM (inactive). For the same molecule, the GI50 [49] was 74.3 µM (inactive), the GI50 [50] was 58.6 µM (inactive) and the GI50 [51] was 57.1 µM (inactive). For the same molecule, the GI50 [52] was > 100 µM (inactive) and the GI50 [53] was > 100 µM (inactive).
For `CC1C=C(CCCCCCCCCCCC[C@@H](O)[C@@H]2CC[C@@H]([C@@H]3CC[C@@H](C(O)CCCCCCCCCCCCC4=C[C@H](C)OC4=O)O3)O2)C(=O)O1` (some centres not stated), the GI50 [1] was 0.881 µM (active), the GI50 [2] was 1.44 µM (inactive) and the GI50 [3] was 5.41 µM (inactive). For the same molecule, the GI50 [4] was > 47.5 µM (inactive), the GI50 [5] was 5.36 µM (inactive) and the GI50 [6] was 0.387 µM (active). For the same molecule, the GI50 [7] was > 100 µM (inactive), the GI50 [8] was > 96.8 µM (inactive) and the GI50 [10] was > 80 µM (inactive). For the same molecule, the GI50 [11] was 0.993 µM (active), the GI50 [12] was 4.5 µM (inactive) and the GI50 [13] was > 100 µM (inactive). The GI50 [14] was 0.0783 µM (active), the GI50 [16] was > 100 µM (inactive) and the GI50 [54] was 21.9 µM (inactive). For the same molecule, the GI50 [17] was > 100 µM (inactive), the GI50 [18] was > 100 µM (inactive) and the GI50 [19] was > 100 µM (inactive). For the same molecule, the GI50 [20] was > 95.5 µM (inactive), the GI50 [21] was 31 µM (inactive) and the GI50 [22] was 41.2 µM (inactive). The GI50 [23] was 17.9 µM (inactive), the GI50 [24] was > 100 µM (inactive) and the GI50 [25] was 1.28 µM (inactive). The GI50 [26] was > 100 µM (inactive), the GI50 [27] was 31.2 µM (inactive) and the GI50 [28] was 6.67 µM (inactive). The GI50 [29] was > 100 µM (inactive), the GI50 [30] was 11.6 µM (inactive) and the GI50 [55] was 0.0697 µM (active). The GI50 [31] was 57.5 µM, the GI50 [32] was > 100 µM (inactive) and the GI50 [33] was > 100 µM (inactive). For the same molecule, the GI50 [34] was > 79.1 µM (inactive), the GI50 [56] was > 57.3 µM (inactive) and the GI50 [57] was 12.2 µM (inactive). For the same molecule, the GI50 [35] was 25.5 µM (inactive), the GI50 [36] was > 68.1 µM (inactive) and the GI50 [37] was > 100 µM (inactive). The GI50 [38] was > 100 µM (inactive), the GI50 [39] was 75.7 µM (inactive) and the GI50 [41] was 17.1 µM (inactive). The GI50 [42] was > 100 µM (inactive), the GI50 [43] was > 41 µM (inactive) and the GI50 [45] was 0.078 µM (active). For the same molecule, the GI50 [46] was > 91.2 µM (inactive), the GI50 [58] was 23 µM (inactive) and the GI50 [47] was > 100 µM (inactive). For the same molecule, the GI50 [48] was 0.518 µM (active), the GI50 [49] was 23.7 µM (inactive) and the GI50 [50] was 3.23 µM (inactive). For the same molecule, the GI50 [51] was < 0.0422 µM (active), the GI50 [52] was > 42.5 µM (inactive) and the GI50 [53] was > 71.1 µM (inactive).
